Here are results for 33 molecules from PubChem BioAssay (NCI).

Holding throughout (test): DTP human tumour cell line panel, 48 h
The subject of assay [1] is DMS 273 small cell lung.
Assay [2] relates to LXFL 529 NSCLC.
Assay [3] relates to DLD-1 colon.
The subject of assay [4] is DMS 114 small cell lung.
The subject of assay [5] is SNB-78 CNS.
Assay [6] relates to TK-10 renal.
The test system of assay [7] is M19-MEL melanoma.
In assay [8] the test system is HOP-62 NSCLC.
Assay [9] concerns KM20L2 colon.
The subject of assay [10] is U251 CNS.
Assay [11] has as its system HOP-18 NSCLC.
Assay [12] has as its system NCI-H460 lung.
In assay [13] the test system is XF 498 CNS.
Assay [14] has as its system HCT-15 colon.
The test system of assay [15] is RXF 393 renal.

Molecules are shown by their SMILES.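 48-hour exposure; five concentrations; linearly interpolated endpoints. Abbreviation: GI50, concentration required for 50% inhibition of growth. TGI is the concentration that stops growth completely.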

For the molecule `C/C=C/C#CC#C/C=C/C=C/C(O)CCO` (stereo not drawn), the TGI in [1], in assay [2], in assay [3], in assay [4], in [5] and in assay [6] was greater than 23.1 µM each time. Further, the total growth inhibition concentration (TGI) in assay [7], in assay [8], in assay [9], in assay [10], in [11] and in assay [12] was greater than 23.1 µM throughout. Besides, the TGI in assay [13], in assay [14] and in assay [15] was greater than 23.1 µM throughout.
On to `CN(C)C(=NCc1ccccc1)NC#N`, for which the TGI in assay [1], in assay [2], in [3], in [5], in assay [6] and in assay [7] was greater than 100 µM throughout. The concentration for total growth inhibition (TGI) in assay [8], in [9], in [10], in [12] and in assay [14] was greater than 100 µM throughout.
Consider `C/C(=C\CBr)CCC(Br)C(C)(C)Cl` (stereo not drawn), for which the TGI in assay [1], in [2], in assay [3], in [4], in [5] and in assay [6] was greater than 100 µM throughout. The TGI in assay [7], in assay [8], in [10], in assay [11], in assay [12] and in assay [14] was greater than 100 µM throughout. The concentration for total growth inhibition (TGI) (as a rule, the concentration at which net growth stops) in [15] was greater than 100 µM.
On to `CC1(C)CC[C@]2(C)CC[C@]3(C)C(=CC[C@@H]4[C@@]5(C)CCC(=O)C(C)(C)[C@@H]5[C@H](O)C[C@]43C)[C@@H]2C1`, for which the TGI in [6] came to 30.1 µM; in [8] it was 31.5 µM; in assay [10] it was 30.5 µM; in assay [12], 33.9 µM; in [14] it was 39.3 µM; in [15], 31.1 µM.
On to `Cc1nc2ccc(C(F)(F)F)cc2nc1NCc1ccc(Cl)c(Cl)c1`, for which the TGI in [6] was 21.2 µM; in assay [8], 27.5 µM; in [10] it was 30.6 µM; in assay [12], greater than 100 µM; in assay [14] it was 25.3 µM; in assay [15] it was 26.5 µM.
On to `c1ccc2oc(-c3ccc(-c4nc5ccccc5o4)c4c3CC4)nc2c1`, for which the concentration for total growth inhibition (TGI) in [6], in [8], in [10], in assay [12], in assay [14] and in assay [15] was greater than 100 µM throughout.
As for `COC(=O)c1cc2c(c3c1CC(Cc1ccccc1)C3=O)CCC2` (stereo not drawn), the total growth inhibition concentration (TGI) in assay [6], in assay [8], in assay [10], in assay [12], in assay [14] and in [15] was greater than 100 µM each time.
With `Cc1cn(CCCCC2=NCCCN2)c(=O)[nH]c1=O`, the TGI in [6] was greater than 36.6 µM; in [8] it was greater than 60.7 µM; in assay [10] it was greater than 46.4 µM; in assay [12], greater than 67.8 µM; in assay [14] it was greater than 47.2 µM; in assay [15], greater than 32.6 µM.
Regarding `COC(=O)[C@@]1(C(C)CC(=O)O)CCCCC1=O` (stereo partly drawn), the TGI in assay [1] was 39.7 µM; in [2] it was greater than 100 µM; in assay [3], greater than 100 µM; in assay [4], greater than 100 µM; in assay [5], greater than 100 µM; in assay [6], greater than 100 µM. Besides, the concentration for total growth inhibition (TGI) in assay [7], in assay [8], in assay [9], in assay [10], in assay [11] and in assay [12] was greater than 100 µM throughout. Moreover, the total growth inhibition concentration (TGI) in assay [13], in assay [14] and in [15] was greater than 100 µM each time.
As to `O=[N+]([O-])c1ccc(OC2CC3C4C=CC3C2C4)c([N+](=O)[O-])c1` (stereo not drawn), the total growth inhibition concentration (TGI) in assay [6], in [8], in assay [10], in assay [12], in [14] and in assay [15] was greater than 100 µM throughout. The GI50 in assay [12] and in [14] was greater than 100 µM each time.
Regarding `COc1ccc(/C(Br)=C2\OC(=O)c3ccccc32)cc1`, the TGI in [6], in [8], in assay [10], in assay [12], in assay [14] and in [15] was greater than 10 µM each time.
For `CC1=NC(=Cc2ccccc2O)C(=O)N1n1c(-c2ccccc2)nc2ccccc2c1=O`, the TGI in assay [6], in [8], in [10], in assay [12], in assay [14] and in assay [15] was greater than 100 µM in each case.
In the case of `O=C(CCC1C(=O)NC(=S)NC1=O)c1ccc2ccccc2c1`, the TGI in assay [1], in [2], in [3], in assay [4], in assay [5] and in assay [6] was greater than 100 µM throughout. For the same molecule, the total growth inhibition concentration (TGI) in assay [7], in assay [8], in [9], in [10], in [11] and in assay [12] was greater than 100 µM each time. The TGI in assay [14] and in assay [15] was greater than 100 µM throughout.
Regarding `CC(C)=CCN1CC(C)C(=O)Nc2ccccc21` (stereo not drawn), the concentration for total growth inhibition (TGI) in assay [6], in [8], in [10], in assay [12], in assay [14] and in [15] was greater than 100 µM throughout.
Take `CC(=O)Oc1ccc(/C=C/C(=O)OCCCOC(=O)/C=C/c2ccc(OC(C)=O)c(OC(C)=O)c2)cc1OC(C)=O`: the total growth inhibition concentration (TGI) in assay [6], in [8], in assay [10], in assay [12], in assay [14] and in assay [15] was greater than 100 µM throughout.
As to `C[C@]12C[C@@H](OC(=O)[C@]1(C)O)[C@@H]([C@]1(O)CC[C@H]3[C@@H]4C[C@H]5O[C@]56C[C@H]5O[C@H]5C(=O)[C@]6(C)[C@H]4CC[C@@]31C)C2`, the TGI in [6], in assay [8], in assay [10], in [12], in [14] and in assay [15] was greater than 50 µM each time.
Regarding `Nc1ccc2c(c1)nc1n2C(c2c(F)cccc2F)SC1` (stereo not drawn), the total growth inhibition concentration (TGI) in assay [6], in assay [8], in [10], in [12], in [14] and in assay [15] was greater than 100 µM each time.
`COc1ccc(N2C(=O)/C(=C\c3cc(OC)c(OC)c(OC)c3)SC2c2ccccc2)cc1` (stereo not drawn): the TGI in assay [6], in [8], in assay [10], in [12], in [14] and in assay [15] was greater than 100 µM in each case.
Consider `NS(=O)(=O)c1nnc(NS(=O)(=O)C(F)(F)F)s1`, for which the TGI in assay [6], in [8], in assay [10], in [12], in [14] and in assay [15] was greater than 100 µM throughout.
For the molecule `O=c1[nH]c(=S)nc2nc3c4ccc[nH]c4c4ccccc4c3nc12`, the TGI in assay [6], in assay [8], in assay [10], in assay [12], in [14] and in assay [15] was greater than 100 µM in each case.
Regarding `CC1(C)CNCC(C)(OCc2ccccc2)C(=O)NC(C)(C)CNCC(C)(OCc2ccccc2)C(=O)N1` (stereo not drawn), the TGI in assay [6], in assay [8], in assay [10], in assay [12], in assay [14] and in [15] was greater than 10 µM each time.
Turning to `CCOC(=O)N1N=C(/C(C)=N/OC)C(C)S1=O` (stereo not drawn), the concentration for total growth inhibition (TGI) in assay [6], in assay [8], in [10], in assay [12], in assay [14] and in [15] was greater than 100 µM each time.
For `Nc1ncnc2oc(C3OC(COC(=O)c4ccccc4)C(OC(=O)c4ccccc4)C3OC(=O)c3ccccc3)nc12` (stereo not drawn), the TGI in [6], in assay [8], in assay [10], in assay [12], in [14] and in assay [15] was greater than 100 µM in each case.
`Cc1cc(N(CCC#N)CCC#N)ccc1/C(N=Nc1cccc(Cl)c1)=N/NC(=O)c1cc(Cl)ccc1O`: the total growth inhibition concentration (TGI) in [6] is 59.7 µM; in assay [8] it was 62 µM; in assay [10], greater than 100 µM; in assay [12], 31.9 µM; in [14], 24.4 µM; in assay [15] it was 35.3 µM.
As for `CCCCCCCC1(N=[N+]=[N-])C(=O)Nc2ccccc2C1=O` (stereo not drawn), the TGI came to 31 µM in assay [6]; 32 µM in assay [8]; 28.8 µM in [10]; 53.6 µM in assay [12]; 47.3 µM in assay [14]; 25.1 µM in assay [15].
As to `Oc1[nH]c2ccccc2c1N=NC(=S)Nc1ccccc1Cl`, the TGI was 10.3 µM in assay [6]; 37.9 µM in assay [8]; 55 µM in assay [10]; 52.2 µM in assay [12]; greater than 100 µM in assay [14]; 31.4 µM in [15].
Turning to `CCC(=O)C(CCN1CCC2(CCCc3ccccc32)CC1)(c1ccccc1)c1ccccc1`, the total growth inhibition concentration (TGI) in assay [6] came out at 11 µM; in [8], 8.91 µM; in [10], 14 µM; in assay [12], 9.4 µM; in assay [14] it was 15.1 µM; in [15], 6.18 µM.
On to `CSC(=S)Nc1cccc(C)n1`, for which the TGI in assay [6], in assay [8], in assay [10], in [12], in [14] and in [15] was greater than 100 µM throughout.
Turning to `CC(=O)NC1C(OCc2ccccc2)OC(CO)C(O)C1OC(C)C(=O)NC(C)C(=O)NC(CCC(=O)NCCCCNc1c2ccccc2nc2cccc([N+](=O)[O-])c12)C(N)=O` (stereo not drawn), the concentration for total growth inhibition (TGI) came out at 0.128 µM in [6]; 0.683 µM in assay [8]; 0.303 µM in [10]; 0.0363 µM in [12]; 0.0495 µM in [14]; 0.0676 µM in [15].
Consider `CCOC(=O)C1(C(=O)OCC)[C@@H](c2ccccc2)C2=NO[C@@H]3CCC[C@H]1[C@H]23`, for which the total growth inhibition concentration (TGI) in assay [6], in [8], in [10], in [12], in [14] and in [15] was greater than 100 µM each time.
For the molecule `Fc1ccc(N2C(=S)SC(=Nc3ccccc3)C2=Nc2ccccc2)cc1`, the TGI in assay [6], in assay [8], in assay [10], in assay [12], in [14] and in [15] was greater than 100 µM each time.
Consider `O=C1Cc2c([nH]c3ccc(Br)cc23)-c2cc(O)c(O)cc2N1`, for which the TGI in [6], in assay [8], in assay [10], in [12], in [14] and in assay [15] was greater than 100 µM in each case.
With `CC1(C)OCC([C@H]2O[C@@H](CC(=S)NCCCCCCCCCCCCNC(=S)C[C@H]3O[C@@H](C4COC(C)(C)O4)[C@H]4OC(C)(C)O[C@H]43)[C@H]3OC(C)(C)O[C@H]32)O1` (stereo partly drawn), the TGI in assay [6], in assay [8], in assay [10], in assay [12], in [14] and in assay [15] was greater than 100 µM throughout.
